From ChEMBL document CHEMBL1121459, “Relationship of octanol/water partition coefficient and molecular weight to rat brain capillary permeability” (J Med Chem, 1980)

Columns and labels:
physchem = details: octanol/water
Description: Partition coefficient (logP)

[1] = octanol/water
Description: Partition coefficient (logP)

Row | Molecule | logP (physchem) | logP [1]
1 | O=NN(CCCl)C(=O)NC1CCC(=O)NC1=O (stereo not given) | 0.37 | 
2 | OC(CBr)C(O)C(O)C(O)CBr (stereo not given) | -0.29 | 
3 | O=c1[nH]c(=O)n(C2CCCO2)cc1F (stereo not given) [TEGAFUR] | -0.48 | 
4 | Cc1ncc([N+](=O)[O-])n1CCO [METRONIDAZOLE] | -0.16 | 
5 | O=NN(CCCl)C(=O)NCCCl [CARMUSTINE] | 1.54 | 
6 | O=C1OC(C(O)CO)C(O)=C1O (stereo not given) |  | -4.04
7 | O=c1[nH]cc(F)c(=O)[nH]1 [FLUOROURACIL] | -0.95 | 
8 | BLEOMYCIN |  | -3.3
9 | COc1cc([C@@H]2c3cc4c(cc3[C@@H](O[C@@H]3O[C@@H]5CO[C@@H](c6cccs6)O[C@H]5[C@H](O)[C@H]3O)[C@H]3COC(=O)[C@H]23)OCO4)cc(OC)c1O [TENIPOSIDE] |  | 2.8
10 | CC[C@]1(O)C[C@H]2CN(CCc3c([nH]c4ccccc34)[C@@](C(=O)OC)(c3cc4c(cc3OC)N(C=O)[C@H]3[C@@](O)(C(=O)OC)[C@H](OC(C)=O)[C@]5(CC)C=CCN6CC[C@]43[C@@H]65)C2)C1 [VINCRISTINE] | 2.8 | 
11 | O=NN(CCCl)C(=O)NC1CCCCC1 [LOMUSTINE] | 2.83 | 
12 | NC(N)=O [UREA] |  | -2.8
13 | OCC(O)CO [GLYCERIN] | -1.75 | 
14 | OC[C@@H](O)[C@@H](O)[C@H](O)[C@H](O)CO [MANNITOL] | -3.1 | 
15 | Cc1cc(N2C(N)=NC(N)=NC2(C)C)ccc1OCc1cccc(C(N)=O)c1 | -2.46 | 
16 | CCc1nc(N)nc(N)c1-c1ccc(Cl)c(Cl)c1 [ETOPRINE] | 3.19 | 
17 | O[C@@H]1CO[C@H]2[C@@H]1OC[C@H]2O | -1.29 | 
18 | COc1cccc2c1C(=O)c1c(O)c3c(c(O)c1C2=O)C[C@@](O)(C(=O)CO)C[C@@H]3O[C@H]1C[C@H](N)[C@H](O)[C@H](C)O1 [DOXORUBICIN] | -0.1 | 
19 | CN1CC(=O)NC1=N [CREATININE] |  | -1.77
20 | O=C1NC2(CCCCC2)C(=O)N1CCN(CCCl)CCCl [SPIROMUSTINE] | 2.47 | 
